Laboratory results: patent US6632793B1, “Immunological activity for a peptide of the limulus anti-LPS factor” (Centro de Ingenieria Genetica y Biotecnologia, priority 1997, dated 2003)
Where a SMILES comes first, the peptide text is derived from it.

Tests used:
[1] = system: TNFα from human mononuclear cells; assay: TNF-α synthesis by human mononuclear cells (ELISA of supernatant); format: cell-based; settings: for TNF - α: 18 h, mean of three donors
Experimental: Venous blood was obtained from healthy volunteers and Ficoll-Hypaque centrifugation, fractionated mononuclear cells. The mononuclear cells were washed and resuspended in endotoxic-free RPMI 1640 medium supplemented with 10% fetal calf serum. 30×10^6 cells were aliquoted into plates p-60 (Nunc, Denmark). The cells were incubated with 14 or 28 μg/ml LALF at 37° C. for 18 hours in 5% CO2 and then centrifuged at 3000 rpm during 5 min. The synthesis of TNFα in the supernatant was determined by specific enzyme-linked immunoadsorbent assay (ELISA), kindly provided by Dr. W. Buurman (University Hospital Maastrich, The Netherlands).

[2] = system: Pseudomona aerukinosa; assay: Survival in mice model of fulminating Gram-negative peritoneal sepsis; format: in vivo, mice BalB/c
Experimental: A model of fulminating Gram-negative peritoneal sepsis was developed in mice BalB/c to characterize the efficacy of LALF peptide in protecting an immunologically intact host against serious infections. Groups of mice received LALF peptide (14 μg/0.1 ml) or saline control (0.1 ml) intraperitoneally 20 hours prior to infectious challenge. A doses of Pseudomona aerukinosa (2×10^8 bacterial/mice) producing a total mortality of approximately 90% (Browder et al., 1987, Surgery. Vol. 102: 206-214) was used in order to induce an experimental peritonitis. Survivor's mice were counted each 24 hours during 120 hours after bacterial challenge. Survival data were analyzed by statistical test Kaplan-Meyer, the significance analysis was determined using a long-rank test, table 5. Blood was collected for TNF quantification from the retroorbital sinus at the time 0, 20, 40, 60, 90, 120, 180, 240 min in the control group and peptide treated-mice. The concentration of TNF-α in mouse serum was determined using a specific ELISA kindly provided by. Dr. W. Buurman (University Hospital Maastrich, The Netherlands). FIG. 4.

[3] = system: TNF-α in mouse serum; assay: Serum TNF-α after intravenous injection of peptide in mice (ELISA); format: in vivo, mice BalB/c; settings: 50 μg intravenously; serum at 0 h, 6 h, 24 h and 48 h; FIG. 3
Experimental: This approach was developed in mice BalB/c between 6-8 old. The mice were injected intravenously with 50 μg of peptide in 0.1 ml [2.5 mg/kg of body weight] or saline solution as a control. The behavior of animals was observed each 4 hours during 24 h. Survival was followed for one week. Blood was collected for TNF-α quantification from the retroorbital sinus at the time 0 h. 6 h, 24 h and 48 h in the control group and peptide treated-mice. The concentration of TNF-α in mouse serum was determined using a specific ELISA kindly provided by Dr. W. Buurman (University Hospital Maastrich, The Netherlands).

[4] = system: TNF-α in peritoneal macrophages; assay: TNF-α production in LPS-activated peritoneal macrophages pre-incubated with peptide; format: cell-based, Balb/c mice; settings: 5 μM pre-incubation 18 h, then LPS 1 μg/ml; 1-24 h; FIG. 6
Experimental: (§1) Peritoneal elicited cells were obtained from Balb/c mice (CENPALAB, Havana, Cuba). Primary mouse macrophages was collected from the peritoneal cavity 4 days after intraperitoneal injection with 1 ml of 4% Brewer's thioglicollate broth. Cell were maintained in RPMI 1640 supplemented with 10% heat-inactivated fetal bovine serum, 2 mM L-glutamine, 200 units/ml penicillin, and 200 μg/ml streptomycin at 37° C. in 5% CO2/[…].
TNF-α assay: Cells were plated in 96-well plates at 2×10^6 cells/ml in 200 μl of medium and incubated at 37° C. for 2 h. Non-adherent cells were removed by repeated washing with PBS. Macrophages were pre-incubated with 5 μM of LALF peptide during 18 h, afterward were washed with RPMI medium in order to eliminate the peptide. Then macrophages were treated with LPS of E. coli 0111:B4, Sigma (1 μg/ml). TNF-α was determined in supematants from cultured cells at the time 1 h, 2 h, 4 h, 6 h and 24 h used a kit of ELISA kindly provided by [Dr. W. Buurman Univ. Hosp. Maastrich, Netherlands].
FIG. 6: Regulatory effect of LALF derived-peptide on TNF-α production in stimulated peritoneal macrophages. The macrophages were pretreated with 5 μM of LALF peptide during 18 hours and then the cells were activated with 1 μg of E. coli LPS. TNF-α was measured in the cells cultured supernatants at different time.

[5] = Cell viability of peritoneal macrophages (MTT reduction); format: cell-based, Balb/c mice; settings: Balb/c, mouse, primary thioglycollate-elicited peritoneal macrophages, 5 μM pre-incubation 18 h, then LPS, read-out: Viability of the cells
Experimental: as §1
Assay for Secretion of NO2-(Jin, F^29, Nathan, C, Radzioch, 0, and Ding, A. Cell, 1997, 88: 417-426). Cells were plated in 96-well plates at 2×10^6 cells /ml in 200 μl of medium and incubated at 37° C. for 2 h, then non-adherent cells were removed by repeated washing with PBS. Macrophage were pre-incubated with 5 μM of LALF peptide during 18 h, afterward were washed with RPMI medium in order to eliminated the peptide. Then the macrophages were treated 72 hr with LPS of E. coli 0111:B4, Sigma (1 μg/ml). Cell viability was assessed by mitochondrial-dependent reduction of MTT to formazan (Szabo^30, c, Mitchell, J A, Gross, S S, Thiemermann, C, and Vane, JR. J. Pharm. Exp. Therap., 1992, 265: 674-80). […] Absorbance at 540 nm was recorded in a microplate reader (SUMA) with sodium nitrite as standards (Green^28, L C, Wagner, D A, Glogowski, J, et al. Anal Biochem 1982; 126: 131-8). […]

With CC[C@H](C)[C@H](NC(=O)[C@H](CCCNC(=N)N)NC(=O)[C@H](Cc1ccc(O)cc1)NC(=O)[C@H](Cc1c[nH]cn1)NC(=O)[C@@H](N)CS)C(=O)N[C@@H](CCCCN)C(=O)N1CCC[C@H]1C(=O)N[C@H](C(=O)N[C@@H](Cc1ccccc1)C(=O)N[C@@H](CCCNC(=N)N)C(=O)N[C@@H](CCCNC(=N)N)C(=O)N[C@@H](CC(C)C)C(=O)N[C@@H](CCCCN)C(=O)N[C@@H](Cc1c[nH]c2ccccc12)C(=O)N[C@@H](CCCCN)C(=O)N[C@@H](Cc1ccc(O)cc1)C(=O)N[C@@H](CCCCN)C(=O)NCC(=O)N[C@@H](CCCCN)C(=O)N[C@@H](Cc1ccccc1)C(=O)N[C@@H](Cc1c[nH]c2ccccc12)C(=O)N[C@@H](CS)C(=O)O)[C@@H](C)O [LALF] (H-CHYRIKPTFRRLKWKYKGKFWC-OH) the “TNF - α” value ([1]; 14 μg/ml) was 0.84 ng/mL, the “TNF - α” value ([1]; 28 μg/ml) was 0.80 ng/mL and the “TNF-α levels versus control buffer treated cells (in words)” value ([1]; 14-28 μg/ml alone) was “did not induce increased levels of TNF-α over the control buffer treated cells”. The “Survival (%)” value ([2]; 14 μg/0.1 ml intraperitoneally 20 hours prior to challenge with 2×10^8 bacteria/mouse, followed 120 hours) was 36%, the “Protection from lethal bacterial challenge (in words)” value ([2]; administrated prophylactically) was “protects mice from lethal bacterial challenge” and the “TNF-α production in vivo (in words)” value [3] was “does not stimulate TNF-α production”. The “TNF levels in LPS-activated macrophages (in words)” value [4] was “down regulated” and the viability at 18 h, 5 µM [5] was at least 98%.
